{
  "source": "patent US9688733B2",
  "about": "“Method for treating spinal cord injury using HMGB1 fragment” (GENOMIX CO., LTD, priority 2012, dated 2017)",
  "key": {"[1]": {"system": "mouse bone marrow mesenchymal stem cell line (MSC-1 cell)", "assay": "Migration-promoting activity in chemotaxis chamber", "assay_type": "cell-based", "conditions": "MSC-1 cells; for migration-promoting activity: 100 μg/ml in lower chamber, positive control full-length mouse HMGB1 (1-215(HEK)), FIG. 1A", "experimental": "The peptides listed below were custom synthesized using the solid phase method by Medical & Biological Laboratories (MBL). The peptides were synthesized based on the mouse HMGB1 sequence. Amino acid sequences from positions 1 to 169 of mouse HMGB1 and human HMGB1 are identical, i.e., shares 100% sequence homology.\nthe full-length mouse HMGB1 produced in HEK293 (1-215(HEK)) as a positive control were adjusted to 100 μg/ml and placed in the lower chamber of a chemotaxis chamber to assess the migration-promoting activity on mouse bone marrow mesenchymal stem cell line (MSC-1 cell; produced by Osaka University, Tamai et al., (Tamai et al., Proc Natl Acad Sci USA., 108(16): 6609-6614, 2011)). (Results)\nAs positive controls, centrifuged supernatant of the skin of a one-day-old mouse (one individual) incubated in PBS at 4° C. for 12 hours, and the full-length mouse HMGB1 produced in HEK293 (1-215(HEK)) were used. Cells of a bone marrow mesenchymal stem cell line (MSC-1) were placed in the upper chamber of a chemotaxis chamber, and the protein and synthetic peptides were added at a concentration of 5 μM or 10 μM to the lower chamber of the chemotaxis chamber. The migration assay was carried out by the same method as described above."}, "[2]": {"system": "C57BL6/J mice with traumatic injury of the spinal cord", "assay": "Neurologic symptoms (Basso Mouse Scale score) in mice with traumatic injury of the spinal cord", "assay_type": "in vivo", "conditions": "five daily administrations", "excerpt": "(§1) Seven-week-old female C57BL6/J mice were used as test animals. After the mice were anesthetized by isoflurane inhalation, skin incision was made along the dorsal midline, and the vertebral arch of the ninth thoracic vertebra was exposed and excised. Dura mater was exposed at the same site, and the spinal cord was held epidurally for three seconds using a microneedle holder to produce a traumatic injury of the spinal cord. After generation of injury of the spinal cord, the skin was sutured. […] The assay reagent was prepared by diluting 100 μg of an HMGB1 fragment (amino acid sequence: amino acids of positions 11 to 44; synthesized peptide produced at MBL) in 200 μL of Dulbecco's PBS (D-PBS). 200 μL of D-PBS was used for the negative control. On the next day of operation, the first administration was performed through the tail vein, and this was followed by a total of five daily administrations. Neurologic symptoms were assessed using the Basso Mouse Scale (BMS) score on Days 1, 3, 7, 10, 14, 17, and 21 post operation.\nSeven-week-old female C57BL6/J mice were used as test animals. After the mice were anesthetized by isoflurane inhalation, skin incision was made along the dorsal midline, and the vertebral arch of the ninth thoracic vertebra was exposed and excised. Dura mater was exposed at the same site, and the spinal cord was held epidurally for three seconds using a microneedle holder to produce a traumatic injury of the spinal cord. After production of injury of the spinal cord, the skin was sutured. […] An HMGB1 fragment (amino acid sequence: the amino acids of positions 11 to 44; synthetic peptide produced at MBL) was prepared by diluting 100 μg of the fragment in 200 μL of Dulbecco's PBS (D-PBS). The full-length HMGB1 protein was produced by expressing it in HEK293 as reported previously, and the purified HMGB1 (100 μg) was dissolved in 200 μL of D-PBS. 200 μL of D-PBS was used for the negative control. On the next day of operation, the first administration was performed through the tail vein, and this was followed by a total of five daily administrations. Neurologic symptoms were assessed using the BMS score on Days 1, 3, 7, and 14 post operation.\nSeven-week-old female C57BL6/J mice were used as test animals. The mice were anesthetized by isoflurane inhalation, skin incision was made along the dorsal midline, and the vertebral arch of the ninth thoracic vertebra was exposed and excised. Dura mater was exposed at the same site, and the spinal cord was held epidurally for three seconds using a microneedle holder to produce a traumatic injury of the spinal cord. After production of injury of the spinal cord, the skin was sutured. […] HMGB1 fragments (amino acid sequences: amino acids from positions 11 to 44 and amino acids from positions 1 to 44; synthetic peptides produced at MBL) were prepared by diluting 100 μg of the fragment in 200 μL of D-PBS. 200 μL of D-PBS was used for the negative control. On the next day of operation, the first administration was performed via the tail vein, and this was followed by a total of five daily administrations. Neurologic symptoms were assessed using the BMS score on Days 1, 3, 7, 10, 14, 17, 21, and 28 post operation."}, "[3]": {"system": "C57BL6/J mice with traumatic injury of the spinal cord", "assay": "HE staining of the damaged region of the spinal cord", "assay_type": "in vivo, mouse", "conditions": "Example 2, 100 μg tail vein, five daily administrations, vs negative control (PBS), FIG. 2B", "excerpt": "as §1"}},
  "note": "“Also recorded” adds a separate entry of the source.",
  "data": [
    {"molecule": "synthetic peptide (1-34): synthetic peptide consisting of the amino acid sequence from positions 1 to 34 of HMGB1 (MGKGDPKKPRGKMSSYAFFVQTCREEHKKKHPDA; UniProt P63158 1-34, looked up, fragment)", "values": [
      {"measurement": "migration-promoting activity", "setting": "[1]", "value": "activity comparable to or higher than that of the positive control"}
    ]},
    {"molecule": "synthetic peptide (17-25): synthetic peptide consisting of the amino acid sequence from positions 17 to 25 of HMGB1 (SEQ ID NO: 3) (AFFVQTCRE; Synthesized peptide from the HMGB1 protein)", "values": [
      {"measurement": "migration-stimulating activity", "setting": "[1]; 5 μM or 10 μM in lower chamber, FIG. 1B", "value": "smallest fragment with migration-stimulating activity; also recorded: smallest fragment that has the migration-stimulating activity"}
    ]},
    {"molecule": "synthetic peptide (1-44): peptide consisting of the amino acids at positions 1 to 44 of the HMGB1 protein (SEQ ID NO: 5) (MGKGDPKKPRGKMSSYAFFVQTCREEHKKKHPDASVNFSEFSKK; Synthesized peptide from the HMGB1 protein)", "values": [
      {"measurement": "migration-promoting activity", "setting": "[1]", "value": "activity comparable to or higher than that of the positive control"},
      {"measurement": "improvement of neurologic symptoms (BMS score)", "setting": "[2]; Example 4, 100 μg tail vein, Days 1-28 post operation, vs PBS, FIG. 4, listed as 1-44", "value": "therapeutic effects were observed; also recorded: effective in treating injury of the spinal cord"},
      {"measurement": "improvement of neurologic symptoms (BMS score)", "setting": "[2]; Example 4, 100 μg tail vein, Days 1-28 post operation, vs PBS, FIG. 4, listed as HMGB1 fragment consisting of the amino acids from positions 1 to 44", "value": "comparable therapeutic effects"}
    ]},
    {"molecule": "synthetic peptide (11-44): synthetic peptide consisting of the amino acid sequence from positions 11 to 44 of HMGB1 (SEQ ID NO: 4) (GKMSSYAFFVQTCREEHKKKHPDASVNFSEFSKK; Synthesized peptide from the HMGB1 protein)", "values": [
      {"measurement": "size of damaged region of the spinal cord (HE staining)", "setting": "[3]; listed as HMGB1 fragment (11-44)", "value": "size of the area of injury of the spinal cord decreased"},
      {"measurement": "size of damaged region of the spinal cord (HE staining)", "setting": "[3]; listed as HMGB1 fragment (11-44 peptide)", "value": "reduced"},
      {"measurement": "migration-promoting activity", "setting": "[1]", "value": "activity comparable to or higher than that of the positive control"},
      {"measurement": "improvement of neurologic symptoms (BMS score)", "setting": "[2]; Example 2, 100 μg in 200 μL D-PBS, tail vein, Days 1-21 post operation, vs PBS, FIG. 2A, listed as HMGB1 fragment", "value": "significant improvement of neurologic symptoms was observed from Day 3 post operation; also recorded: remarkable improvement of symptoms was observed on Days 3, 7, 14, and 17 post operation"},
      {"measurement": "improvement of neurologic symptoms (BMS score)", "setting": "[2]; Example 2, 100 μg in 200 μL D-PBS, tail vein, Days 1-21 post operation, vs PBS, FIG. 2A, listed as HMGB1 fragment (11-44)", "value": "significant effects of improving neurologic symptoms were observed"},
      {"measurement": "improvement of neurologic symptoms (BMS score)", "setting": "[2]; Example 3, 100 μg tail vein, Days 1, 3, 7, 14, fragment vs full-length vs PBS, FIG. 3, listed as HMGB1 fragment (amino acids at positions 11-44)", "value": "most effective; also recorded: much more satisfactory improvement of the therapeutic effect"},
      {"measurement": "improvement of neurologic symptoms (BMS score)", "setting": "[2]; Example 4, 100 μg tail vein, Days 1-28 post operation, vs PBS, FIG. 4", "value": "therapeutic effects were observed; also recorded: effective in treating injury of the spinal cord"},
      {"measurement": "improvement of neurologic symptoms (BMS score)", "setting": "[2]; Example 4, 100 μg tail vein, Days 1-28 post operation, vs PBS, FIG. 4, listed as HMGB1 fragment consisting of the amino acids from positions 11 to 44", "value": "comparable therapeutic effects"}
    ]},
    {"molecule": "synthetic peptide (11-30): synthetic peptide consisting of the amino acid sequence from positions 11 to 30 of HMGB1 (GKMSSYAFFVQTCREEHKKK; UniProt P63158 11-30, looked up, fragment)", "values": [
      {"measurement": "migration-promoting activity", "setting": "[1]", "value": "activity comparable to or higher than that of the positive control"}
    ]},
    {"molecule": "synthetic peptide (11-25): synthetic peptide consisting of the amino acid sequence from positions 11 to 25 of HMGB1 (GKMSSYAFFVQTCRE; UniProt P63158 11-25, looked up, fragment)", "values": [
      {"measurement": "migration-promoting activity", "setting": "[1]", "value": "found to have the activity"}
    ]},
    {"molecule": "synthetic peptide (11-34): synthetic peptide consisting of the amino acid sequence from positions 11 to 34 of HMGB1 (GKMSSYAFFVQTCREEHKKKHPDA; UniProt P63158 11-34, looked up, fragment)", "values": [
      {"measurement": "migration-promoting activity", "setting": "[1]", "value": "activity comparable to or higher than that of the positive control"}
    ]},
    {"molecule": "full-length HMGB1: full-length HMGB1 protein produced by expressing it in HEK293, purified; positive control / comparator (protein, UniProt P63158 1-215, looked up, full-length, full-length HMGB1 protein produced by expressing it in HEK293, purified; positive control / comparator) MGKGDPKKPRGKMSSYAFFVQTCREEHKKKHPDASVNFSEFSKKCSERWKTMSAKEKGKFEDMAKADKARYEREMKTYIPPKGETKKKFKDPNAPKRPPSAFFLFCSEYRPKIKGEHPGLSIGDVAKKLGEMWNNTAADDKQPYEKKAAKLKEKYEKDIAAYRAKGKPDAAKKGVVKAEKSKKKKEEEDDEEDEEDEEEEEEEEDEDEEEDDDDE", "values": [
      {"measurement": "improvement of neurologic symptoms (BMS score)", "setting": "[2]; Example 3, 100 μg tail vein, Days 1, 3, 7, 14, fragment vs full-length vs PBS, FIG. 3", "value": "intermediate between the effect in the HMGB1 fragment (amino acids at positions 11-44)-administered group and that in the negative control group"},
      {"measurement": "improvement of neurologic symptoms (BMS score)", "setting": "[2]; Example 3, 100 μg tail vein, Days 1, 3, 7, 14, fragment vs full-length vs PBS, FIG. 3, listed as HMGB1 (full-length)", "value": "therapeutic effect was observed; also recorded: not as effective as that in the HMGB1 fragment"}
    ]}
  ]
}
